Data on 2 compounds can be found in ChEMBL document CHEMBL1201862, “PubChem BioAssay data set” (2004).

The source made the active and inactive calls.

The target of test [1] is T1, Serine/threonine-protein phosphatase (Candida dubliniensis (strain CD36 / CBS 7987 / NCPF 3949 / NRRLY-17841) (Yeast), UniProt B9W6M3).
T1 sequence (B9W6M3 whole entry): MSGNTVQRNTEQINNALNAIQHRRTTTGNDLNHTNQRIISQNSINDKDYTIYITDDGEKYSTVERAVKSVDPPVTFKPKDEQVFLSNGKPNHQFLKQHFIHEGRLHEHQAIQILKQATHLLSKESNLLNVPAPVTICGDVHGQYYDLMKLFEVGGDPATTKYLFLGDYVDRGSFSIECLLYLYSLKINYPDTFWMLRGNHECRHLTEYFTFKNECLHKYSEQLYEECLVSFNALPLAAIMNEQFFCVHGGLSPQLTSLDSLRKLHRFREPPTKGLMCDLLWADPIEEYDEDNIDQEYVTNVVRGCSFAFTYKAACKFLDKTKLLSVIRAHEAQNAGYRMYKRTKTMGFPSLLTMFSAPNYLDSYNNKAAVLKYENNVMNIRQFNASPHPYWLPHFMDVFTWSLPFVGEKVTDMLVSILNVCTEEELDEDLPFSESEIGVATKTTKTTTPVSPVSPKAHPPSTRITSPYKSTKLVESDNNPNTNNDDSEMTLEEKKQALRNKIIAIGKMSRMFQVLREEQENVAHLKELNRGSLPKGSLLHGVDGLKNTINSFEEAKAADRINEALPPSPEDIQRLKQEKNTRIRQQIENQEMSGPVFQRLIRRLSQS
Briefly: calcineurin pathway inhibitors in yeast reporter, dose response, S. cerevisiae, CDRE-lacZ, luminescence, secondary (AID 2388).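 Note: yeast reporter cells carrying a calcineurin-responsive lacZ construct stimulated with calcium chloride; luminescent beta-galactosidase reporter signal in whole cells rather than isolated phosphatase activity; potency for inhibition where a drop in reporter signal means calcineurin blockade.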 In kind it is functional, cell-based.

Test [2] is described as follows: C. albicans growth with fluconazole, confirmation, fluorescence, retest (AID 2467). In kind it is functional, cell-based.
The target in another test is Nonstructural protein 1 (Influenza A virus, UniProt Q194T2). It counts as functional, Influenza A virus (A/California/07/2009(H1N1)).
Test [3] has as its target Fibroblast growth factor receptor 3 (Homo sapiens, UniProt P22607). In kind it is functional.
Test [4] concerns the target Tyrosine-protein kinase Blk (Homo sapiens, UniProt P51451). It counts as functional.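 Note: obtained as one member of a kinome-wide kinase assay panel.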
In test [5] the target is MAP kinase-activated protein kinase 3 (Homo sapiens, UniProt Q16644). In kind it is functional.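 Note: value comes from a kinome-wide profiling panel in which MAPKAPK3 is one of the panel members.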
For test [6], the target named is Glycogen synthase kinase-3 alpha (Homo sapiens, UniProt P49840). It counts as functional.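 Note: GSK3A result taken from a broad kinome-wide kinase panel.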
In test [7] the target is Serine/threonine-protein kinase pim-1 (Homo sapiens, UniProt P11309). In kind it is functional.
In test [8] the target is Casein kinase II subunit alpha (Homo sapiens, UniProt P68400). It counts as functional.
Casein kinase II subunit alpha, sequence (P68400 whole entry): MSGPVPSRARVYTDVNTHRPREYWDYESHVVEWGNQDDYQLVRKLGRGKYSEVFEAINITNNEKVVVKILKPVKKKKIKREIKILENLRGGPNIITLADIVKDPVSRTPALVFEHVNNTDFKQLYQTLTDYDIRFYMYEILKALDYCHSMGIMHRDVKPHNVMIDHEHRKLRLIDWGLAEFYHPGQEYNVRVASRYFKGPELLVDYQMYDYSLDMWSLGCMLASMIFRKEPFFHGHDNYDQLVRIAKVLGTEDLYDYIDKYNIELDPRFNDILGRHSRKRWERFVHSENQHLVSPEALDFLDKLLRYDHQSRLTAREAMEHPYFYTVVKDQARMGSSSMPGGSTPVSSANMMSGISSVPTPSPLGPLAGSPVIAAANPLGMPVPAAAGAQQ
In test [9] the target is MAP kinase-interacting serine/threonine-protein kinase 2 (Homo sapiens, UniProt Q9HBH9). In kind it is functional.
The target in test [10] is Serine/threonine-protein kinase SIK2 (Homo sapiens, UniProt Q9H0K1). Description: Navigating the Kinome. Panel member name: SIK2. It counts as functional.
In test [11] the target is Rho-associated protein kinase 1 (Homo sapiens, UniProt Q13464). It counts as functional.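 Note: measured within a broad kinome-wide panel profiling many kinases.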
The target in test [12] is Interleukin-1 receptor-associated kinase 1 (Homo sapiens, UniProt P51617). It counts as functional.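 Note: IRAK1 tested as one member of a kinome panel.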
Interleukin-1 receptor-associated kinase 1, sequence (P51617 whole entry): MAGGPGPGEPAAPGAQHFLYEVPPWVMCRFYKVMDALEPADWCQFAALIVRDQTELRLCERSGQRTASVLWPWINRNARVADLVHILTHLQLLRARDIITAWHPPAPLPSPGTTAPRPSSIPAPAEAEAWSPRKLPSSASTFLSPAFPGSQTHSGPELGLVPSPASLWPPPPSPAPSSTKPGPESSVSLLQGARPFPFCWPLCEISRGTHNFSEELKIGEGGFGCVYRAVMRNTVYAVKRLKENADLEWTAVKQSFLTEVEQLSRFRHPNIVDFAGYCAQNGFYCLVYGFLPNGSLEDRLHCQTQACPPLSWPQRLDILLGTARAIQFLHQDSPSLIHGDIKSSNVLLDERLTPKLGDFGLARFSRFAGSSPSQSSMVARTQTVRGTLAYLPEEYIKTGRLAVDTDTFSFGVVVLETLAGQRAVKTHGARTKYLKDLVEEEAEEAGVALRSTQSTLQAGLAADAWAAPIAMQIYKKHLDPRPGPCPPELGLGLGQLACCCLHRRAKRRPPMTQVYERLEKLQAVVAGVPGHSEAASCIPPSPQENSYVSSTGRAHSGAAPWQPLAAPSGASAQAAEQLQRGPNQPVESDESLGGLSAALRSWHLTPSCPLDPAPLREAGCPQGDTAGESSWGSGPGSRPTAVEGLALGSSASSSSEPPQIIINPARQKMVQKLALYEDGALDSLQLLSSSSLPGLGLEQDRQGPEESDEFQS
In test [13] the target is Serine/threonine-protein kinase D3 (Homo sapiens, UniProt O94806). It counts as functional.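 Note: determined within a kinase panel screen, with PRKCN as the panel member.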
Serine/threonine-protein kinase D3, sequence (O94806 whole entry): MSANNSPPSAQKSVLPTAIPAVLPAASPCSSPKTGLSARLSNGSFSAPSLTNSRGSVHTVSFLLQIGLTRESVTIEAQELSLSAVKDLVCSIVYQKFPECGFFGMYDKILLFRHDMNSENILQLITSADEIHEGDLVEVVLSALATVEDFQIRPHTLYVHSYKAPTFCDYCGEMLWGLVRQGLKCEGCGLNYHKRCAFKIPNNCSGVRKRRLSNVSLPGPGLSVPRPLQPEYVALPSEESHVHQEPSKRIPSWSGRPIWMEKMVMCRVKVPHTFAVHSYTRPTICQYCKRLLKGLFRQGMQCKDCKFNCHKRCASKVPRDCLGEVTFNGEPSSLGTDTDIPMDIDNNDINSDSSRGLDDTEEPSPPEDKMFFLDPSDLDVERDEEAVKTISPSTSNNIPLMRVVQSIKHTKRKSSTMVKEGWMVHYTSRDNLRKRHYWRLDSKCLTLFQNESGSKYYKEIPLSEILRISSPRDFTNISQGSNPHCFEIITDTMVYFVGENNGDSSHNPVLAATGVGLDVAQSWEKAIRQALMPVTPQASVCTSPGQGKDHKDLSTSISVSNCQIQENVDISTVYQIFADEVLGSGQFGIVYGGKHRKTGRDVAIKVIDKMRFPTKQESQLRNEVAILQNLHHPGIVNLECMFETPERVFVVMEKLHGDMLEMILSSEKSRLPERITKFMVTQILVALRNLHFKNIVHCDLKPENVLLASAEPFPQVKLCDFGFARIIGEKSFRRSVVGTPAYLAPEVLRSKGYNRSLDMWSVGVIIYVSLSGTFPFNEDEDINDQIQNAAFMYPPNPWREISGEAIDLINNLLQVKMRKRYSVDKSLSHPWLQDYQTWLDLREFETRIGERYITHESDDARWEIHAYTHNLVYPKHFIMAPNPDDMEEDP
In test [14] the target is Proto-oncogene tyrosine-protein kinase ROS (Homo sapiens, UniProt P08922). It counts as functional.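 Note: ROS1 tested as one member of a kinome-wide kinase panel.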
The target of test [15] is Mitogen-activated protein kinase 1 (Homo sapiens, UniProt P28482). It counts as functional.
Test [16] has as its target Tyrosine-protein kinase Srms (Homo sapiens, UniProt Q9H3Y6). In kind it is functional.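 Note: SRMS measured as one member of a kinome-wide kinase profiling panel.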
The target in test [17] is Dual specificity mitogen-activated protein kinase kinase 2 (Homo sapiens, UniProt P36507). Briefly: Navigating the Kinome. Panel member name: MAP2K2. In kind it is functional.
For test [18], the target named is Mitogen-activated protein kinase kinase kinase 10 (Homo sapiens, UniProt Q02779). Briefly: Navigating the Kinome. Panel member name: MAP3K10. It counts as functional.
In test [19] the target is Tyrosine-protein kinase receptor UFO (Homo sapiens, UniProt P30530). In kind it is functional.
In test [20] the target is Homeodomain-interacting protein kinase 2 (Homo sapiens, UniProt Q9H2X6). In kind it is functional.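 Note: measured within a kinome-wide kinase profiling panel, HIPK2 being one panel member.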
In test [21] the target is Tyrosine-protein kinase JAK2 (Homo sapiens, UniProt O60674). In kind it is functional.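 Note: JAK2 tested as one member of a kinase panel.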
Test [22] has as its target MAP/microtubule affinity-regulating kinase 3 (Homo sapiens, UniProt P27448). It counts as functional.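 Note: MARK3 affinity measured as one member of a kinome panel.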
The target of a further test is Activated CDC42 kinase 1 (Homo sapiens, UniProt Q07912). Description: Navigating the Kinome. Panel member name: ACK1. In kind it is functional.
Another test concerns the target Focal adhesion kinase 1 (Homo sapiens, UniProt Q05397). It counts as functional.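 Note: measured as one member of a kinome panel.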
For test [23], the target named is Tyrosine-protein kinase Lck (Homo sapiens, UniProt P06239). In kind it is functional.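 Note: lck was assayed as one member of a kinase panel.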
Tyrosine-protein kinase Lck, sequence (P06239 whole entry): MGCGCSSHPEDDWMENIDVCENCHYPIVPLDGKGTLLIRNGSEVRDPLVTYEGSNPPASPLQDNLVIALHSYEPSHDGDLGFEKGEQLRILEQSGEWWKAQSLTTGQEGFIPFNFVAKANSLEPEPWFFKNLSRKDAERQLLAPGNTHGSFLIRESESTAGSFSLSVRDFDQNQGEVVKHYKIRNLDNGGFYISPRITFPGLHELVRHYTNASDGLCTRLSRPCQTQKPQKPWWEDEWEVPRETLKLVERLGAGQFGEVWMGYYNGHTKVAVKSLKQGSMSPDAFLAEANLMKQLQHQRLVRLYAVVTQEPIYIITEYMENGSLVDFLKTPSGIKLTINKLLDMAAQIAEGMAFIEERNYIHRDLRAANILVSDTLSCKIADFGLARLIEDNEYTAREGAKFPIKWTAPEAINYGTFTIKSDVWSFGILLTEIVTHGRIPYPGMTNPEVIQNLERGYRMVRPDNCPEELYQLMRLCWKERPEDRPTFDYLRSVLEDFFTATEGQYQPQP
Test [24] addresses Serine/threonine-protein kinase TBK1 (Homo sapiens, UniProt Q9UHD2). Description: Navigating the Kinome. Panel member name: TBK1. In kind it is functional.
Test [25] has as its target Tyrosine-protein kinase FRK (Homo sapiens, UniProt P42685). In kind it is functional.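 Note: FRK tested as one member of a kinome panel.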
Test [26] addresses Mitogen-activated protein kinase kinase kinase 20 (Homo sapiens, UniProt Q9NYL2). It counts as functional.
Test [27] addresses Proto-oncogene tyrosine-protein kinase Src (Homo sapiens, UniProt P12931). It counts as functional.
In test [28] the target is Mitogen-activated protein kinase 12 (Homo sapiens, UniProt P53778). It counts as functional.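 Note: measured as one member of a kinome-wide kinase profiling panel.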
Mitogen-activated protein kinase 12, sequence (P53778 whole entry): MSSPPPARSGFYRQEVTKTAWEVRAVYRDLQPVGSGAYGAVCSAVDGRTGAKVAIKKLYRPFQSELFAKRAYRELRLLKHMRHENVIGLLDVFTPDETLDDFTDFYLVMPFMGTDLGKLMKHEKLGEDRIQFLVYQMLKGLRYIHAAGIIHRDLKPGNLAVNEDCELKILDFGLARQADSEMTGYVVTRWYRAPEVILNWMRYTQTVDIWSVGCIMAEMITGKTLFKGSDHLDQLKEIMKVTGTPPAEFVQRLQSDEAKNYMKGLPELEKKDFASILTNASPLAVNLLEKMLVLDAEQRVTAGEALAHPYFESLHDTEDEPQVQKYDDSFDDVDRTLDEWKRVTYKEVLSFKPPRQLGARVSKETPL
In test [29] the target is Receptor tyrosine-protein kinase erbB-4 (Homo sapiens, UniProt Q15303). It counts as functional.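 Note: ERBB4 member of a kinome-wide kinase profiling panel.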
Test [30] addresses Cell division cycle 7-related protein kinase (Homo sapiens, UniProt O00311). In kind it is functional.
Test [31] has as its target Tyrosine-protein kinase SYK (Homo sapiens, UniProt P43405). It counts as functional.
For test [32], the target named is Fibroblast growth factor receptor 1 (Homo sapiens, UniProt P11362). In kind it is functional.
The target of test [33] is Serine/threonine-protein kinase MRCK alpha (Homo sapiens, UniProt Q5VT25). It counts as functional.
Test [34] addresses Protein kinase C theta type (Homo sapiens, UniProt Q04759). Description: Navigating the Kinome. Panel member name: PRKCQ. It counts as functional.

Tyrosine-protein kinase Blk, sequence (P51451 whole entry): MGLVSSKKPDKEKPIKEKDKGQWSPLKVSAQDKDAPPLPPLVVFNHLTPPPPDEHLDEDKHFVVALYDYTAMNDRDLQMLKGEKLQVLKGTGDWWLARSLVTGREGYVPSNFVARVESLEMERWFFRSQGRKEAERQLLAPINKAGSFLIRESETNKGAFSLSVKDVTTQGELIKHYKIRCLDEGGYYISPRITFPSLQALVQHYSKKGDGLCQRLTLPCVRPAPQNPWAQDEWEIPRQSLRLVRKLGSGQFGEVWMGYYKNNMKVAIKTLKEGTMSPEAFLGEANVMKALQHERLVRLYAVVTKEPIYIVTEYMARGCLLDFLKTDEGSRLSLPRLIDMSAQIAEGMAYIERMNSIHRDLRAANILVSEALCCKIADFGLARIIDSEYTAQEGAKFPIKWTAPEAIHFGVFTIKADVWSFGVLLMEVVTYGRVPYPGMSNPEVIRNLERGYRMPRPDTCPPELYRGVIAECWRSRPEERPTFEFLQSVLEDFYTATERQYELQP
Fibroblast growth factor receptor 3, sequence (P22607 whole entry): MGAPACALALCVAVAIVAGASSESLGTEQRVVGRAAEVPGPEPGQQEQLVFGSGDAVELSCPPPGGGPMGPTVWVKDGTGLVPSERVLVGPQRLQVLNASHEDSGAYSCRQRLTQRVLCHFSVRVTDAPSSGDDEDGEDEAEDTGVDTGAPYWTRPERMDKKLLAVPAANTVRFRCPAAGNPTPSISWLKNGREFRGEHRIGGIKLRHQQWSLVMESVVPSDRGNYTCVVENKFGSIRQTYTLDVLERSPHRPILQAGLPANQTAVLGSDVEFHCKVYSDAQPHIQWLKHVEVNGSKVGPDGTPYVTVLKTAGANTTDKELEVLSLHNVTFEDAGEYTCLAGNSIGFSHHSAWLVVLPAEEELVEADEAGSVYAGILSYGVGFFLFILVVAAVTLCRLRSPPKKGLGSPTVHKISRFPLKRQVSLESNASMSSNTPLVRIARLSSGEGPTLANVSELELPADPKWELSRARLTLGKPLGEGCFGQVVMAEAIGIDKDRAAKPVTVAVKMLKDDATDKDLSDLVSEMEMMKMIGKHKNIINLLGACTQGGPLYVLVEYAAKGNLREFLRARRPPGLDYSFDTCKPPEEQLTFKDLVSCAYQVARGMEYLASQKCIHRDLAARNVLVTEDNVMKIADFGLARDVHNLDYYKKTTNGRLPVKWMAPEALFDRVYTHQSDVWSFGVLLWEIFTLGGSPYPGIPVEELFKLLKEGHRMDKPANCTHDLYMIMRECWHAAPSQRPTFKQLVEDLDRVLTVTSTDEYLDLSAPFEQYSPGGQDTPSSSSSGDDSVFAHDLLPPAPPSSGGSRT
Serine/threonine-protein kinase TBK1, sequence (Q9UHD2 whole entry): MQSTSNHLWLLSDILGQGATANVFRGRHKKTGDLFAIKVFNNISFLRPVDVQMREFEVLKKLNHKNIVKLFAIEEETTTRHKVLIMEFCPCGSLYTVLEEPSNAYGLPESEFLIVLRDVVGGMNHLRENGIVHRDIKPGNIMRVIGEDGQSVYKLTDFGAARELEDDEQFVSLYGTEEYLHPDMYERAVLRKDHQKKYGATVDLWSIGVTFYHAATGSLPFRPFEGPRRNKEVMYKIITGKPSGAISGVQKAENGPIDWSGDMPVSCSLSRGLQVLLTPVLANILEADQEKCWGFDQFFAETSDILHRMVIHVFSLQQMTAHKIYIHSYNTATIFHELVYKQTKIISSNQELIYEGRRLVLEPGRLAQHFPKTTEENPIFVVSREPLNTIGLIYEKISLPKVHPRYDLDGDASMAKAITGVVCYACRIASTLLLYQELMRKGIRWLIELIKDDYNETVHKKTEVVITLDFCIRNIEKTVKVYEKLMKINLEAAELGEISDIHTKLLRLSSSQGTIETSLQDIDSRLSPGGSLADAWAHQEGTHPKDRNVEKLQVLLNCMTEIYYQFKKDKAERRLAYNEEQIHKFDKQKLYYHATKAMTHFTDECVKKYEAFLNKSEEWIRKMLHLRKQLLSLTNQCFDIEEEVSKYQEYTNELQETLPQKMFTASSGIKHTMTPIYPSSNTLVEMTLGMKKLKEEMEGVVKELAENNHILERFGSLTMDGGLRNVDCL

A word on the EC50: it is the concentration that produces a half-maximal response. A word on the IC50: it is the concentration that gives 50% inhibition. With `CCCn1nc([N+](=O)[O-])c(C(C#N)c2nc3ccccc3s2)c(Cl)c1=O` (configuration not stated), the EC50 in [1] is > 180000 nM (inactive); in test [2] it was 661 nM (active). In addition, at Nonstructural protein 1, the IC50 was 24700 nM (active).

By Ki is commonly meant a measure of affinity in units of concentration, obtained from inhibition or displacement. Turning to `NCCCn1cc(-c2cc(-c3cc4ccccc4s3)c3[nH]ncc3c2)c2nc(N)ncc21`, the Ki in [3] is > 2000 nM (inactive); in test [4] it was > 1580 nM (inactive); in test [5], 1580 nM (active); in [6], 126 nM (active); in test [7], > 3160 nM (inactive); in [8], 100 nM (active). For the same compound, the Ki was 25.1 nM (active) in test [9]; 251 nM (active) in test [10]; 79.4 nM (active) in test [11]; 1260 nM (active) in [12]; 398 nM (active) in [13]; 200 nM (active) in [14]. In addition, the Ki in [15] was 5010 nM (active); in test [16], > 1580 nM (inactive); in [17] it was > 3980 nM (inactive); in [18] it was 126 nM (active); in [19], 501 nM (active); in [20], 631 nM (active). Also, the Ki is > 2000 nM (inactive) in [21]; 63.1 nM (active) in test [22]; > 3980 nM (inactive) at Activated CDC42 kinase 1; > 5010 nM (inactive) on Focal adhesion kinase 1; > 3980 nM (inactive) in test [23]; > 1580 nM (inactive) in test [24]. For the same compound, the Ki in test [25] was > 2510 nM (inactive); in test [26] it was 2510 nM (active); in [27], > 2000 nM (inactive); in [28] it was 1260 nM (active); in test [29], > 3980 nM (inactive); in test [30] it was 12.6 nM (active). In addition, the Ki was 100 nM (active) in [31], > 3980 nM (inactive) in [32], 631 nM (active) in test [33] and > 2000 nM (inactive) in [34].
